Data on three compounds can be found in patent US20240118268A1, “BIOMARKERS ON CELLULAR ENDOCRINE MODELS FOR ENDOCRINE DISRUPTION ASSESSMENT” (priority 2020, published 2024).

The nature of data set [1]: Neutral red cell viability of JEG-3 cells with SLS or PFOA in 10% or 2.5% FBS. As to conditions: human. How it is done:
(§1) The choriocarcinoma-derived JEG-3 cell-line (ATCC® HTB-36™, Manassas, VA, USA), was grown as recommended by ATCC: Minimum Essential Medium Eagle's medium supplemented with 10% fetal bovine serum, 2 mM of glutamine, 50 IU/mL of penicillin and 50 IU/mL of streptomycin. Cells were detached using trypsin, counted, and then seeded at 80,000 cells/mL in 96-well microplates (200 μL by well) and Nunc® Lab-Tek® II Chamber Slide™ system for immunostaining.
(§2) Cells were incubated with sodium lauryl sulfate or perfluorooctanoic acid diluted in culture medium supplemented with either 2.5% or 10% FBS. After 24 hours, cell viability was evaluated using the neutral red assay. Neutral Red solution at 0.4% in water was diluted in culture medium with a ratio of 1:79 to give a final concentration of 50 μg/mL. Neutral Red was distributed in the plates for a 3-hour incubation time at 37° C. The cells were then rinsed with PBS to remove any remaining unincorporated dye. The dye was then released from the cells using a lysis solution (1% acetic acid, 50% ethanol and 49% H2O) and the fluorescence was measured (λex=540 nm, λem=600 nm) using Spark microplate fluorometer (Tecan, Mannedorf, Switzerland).

A further data set concerns JEG-3 cells. Described as above. As to conditions: for living cells: 2.5% FBS, 24 h. How it is done: as §1, §2
Data set [2] concerns JEG-Tox cells. The data set can be described thus: Chromatin condensation (Hoechst 33342) as a hallmark of apoptosis. As to conditions: 24 h. Type of data set: cell-based, human. Here is the method:
The UV fluorescent probe Hoechst 33342 enters living and apoptotic cells, intercalating into DNA. The fluorescent signal is proportional to chromatin condensation in apoptosis. The cells were incubated with Hoechst 33342 at 10 μg/mL for 30 minutes at room temperature. The fluorescence signal was read (λex=360 nm, λem=460 nm) using a cytofluorometer (Spark).

Data set [3] in a line: Neutral Red cell viability assay on JEG-Tox cells, 72 h. Type of data set: cell-based, human. Conditions: human, 100 μM, 72 h, read-out: cell viability. Here is the method:
(§3) The JEG-3 human trophoblast cell line, derived from a human placental carcinoma, was obtained from the American Type Culture Collection (ATCC HTB-36). Cells were cultured in minimum Essential medium, supplemented with 10% fetal bovine serum (FBS), 1% L-glutamine, 0.5% penicillin and streptomycinin, in 75 cm2 polystyrene flasks. Cell cultures were maintained in a cell culture incubator (37° C., saturated humidity, 5% CO2). When the JEG-3 cells reached subconfluency, they were detached using trypsin-EDTA and counted. The cellular suspension was diluted and seeded either in 96-well microplates at a cellular density of 80,000 cells/mL or in 6-well microplates at 120,000 cells/mL, then kept at 37° C. for 24 h. The cells were incubated with EDCs according to example 1.
(§4) Cell viability was evaluated using the Neutral Red assay. The Neutral Red solution at 0.4% (m/v in water) was diluted in cell culture medium to obtain a working concentration of 50 μg/mL. […] The cells were then rinsed with PBS and lysed with a solution of acetic acid-ethanol (ethanol 50.6%, water 48.4% and acetic acid 1%). After homogenization, the fluorescence signal was scanned (λexc=540 nm, λem=600 nm) with a Tecan Spark microplate reader (Mannedorf, Switzerland). The cell viability was calculated compared to the control cells (the fluorescence of the control cells as 100% viability).

Data set [4] relates to JEG-Tox cells. The data set is described as above. Format: cell-based, human. Conditions: 72 h. How it is done: as §3, §4
For another data set, the target named is T1, P2X7 receptor (Homo sapiens, UniProt Q99572).
T1 construct: P2X7 receptor is expressed by human placenta and JEG-Tox; endogenous in cells; host or cells: JEG-3 human trophoblast cell line (ATCC HTB-36) cultured in 2.5% FBS (JEG-Tox)
T1 sequence (Q99572 1-595): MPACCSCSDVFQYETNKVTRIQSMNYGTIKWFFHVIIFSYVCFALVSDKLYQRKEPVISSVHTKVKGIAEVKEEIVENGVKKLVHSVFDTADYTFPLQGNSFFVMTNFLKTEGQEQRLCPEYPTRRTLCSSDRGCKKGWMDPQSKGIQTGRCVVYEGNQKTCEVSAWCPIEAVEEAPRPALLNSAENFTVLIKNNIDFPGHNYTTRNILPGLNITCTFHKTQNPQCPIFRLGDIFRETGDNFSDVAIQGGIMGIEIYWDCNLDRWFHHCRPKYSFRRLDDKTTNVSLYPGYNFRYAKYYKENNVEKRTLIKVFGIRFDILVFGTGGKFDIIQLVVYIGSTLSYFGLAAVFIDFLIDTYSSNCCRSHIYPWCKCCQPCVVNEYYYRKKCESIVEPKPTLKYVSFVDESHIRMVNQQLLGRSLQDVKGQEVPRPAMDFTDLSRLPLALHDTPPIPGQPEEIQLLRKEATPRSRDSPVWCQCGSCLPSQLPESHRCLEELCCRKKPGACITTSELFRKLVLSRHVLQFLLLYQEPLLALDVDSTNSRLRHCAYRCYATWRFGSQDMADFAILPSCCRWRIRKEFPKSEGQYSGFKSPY
Type of data set: cell-based. As to conditions: for endocrine disruptor according to the definition of the European Union: JEG-3 cells in 2.5% serum, by measuring the activity of the P2X7 receptor. Here is the method:
P2X7 cell death receptor activation was evaluated using the YO-PRO-1® assay (Rat et al. J Biol Methods. 2017 Jan. 20; 4(1):e64). YO-PRO-1® probe only enters into cells after P2X7 receptor activation-induced pore opening, and binds to DNA, emitting fluorescence. A 1 mM YO-PRO-1 stock solution was diluted at 1/500 in PBS just before use and distributed into the wells of the microplate. After a 10-minute incubation time at room temperature, fluorescence signal was read (λex=491 nm, λem=509 nm) with a Spark cytofluorometer.
P2X7 cell death receptor activation was evaluated using the YO-PRO-1® assay (Rat et al., 2017). YO-PRO-1® probe only enters into cells after P2X7 receptor activation-induced pore opening, and binds to DNA, emitting fluorescence. A 1 mM YO-PRO-1 stock solution was diluted at 1/500 in PBS just before use and distributed into the wells of the microplate. After a 10-minute incubation time at room temperature, fluorescence signal was read (λex=485 nm, λem=531 nm) with a Spark cytofluorometer.

The next data set concerns caspase-1. The data set can be described thus: Caspase 1 activity, Caspase-Glo 1 Inflammasome Assay. Format: cell-based, human. As to conditions: 72 h. Here is the method: Caspase 1 activity was evaluated using the Caspase-Glo® 1 1 Inflammasome Assay kit. The assay was performed according to the manufacturer's instructions. Luminescence was quantified with a Spark microplate reader.
Caspase 1 activity was evaluated using the Caspase-Glo®1 Inflammasome Assay kit. The assay was performed according to the manufacturer's instructions. Luminescence was quantified with a Spark microplate reader.

Another data set deals with caspase-9. Kind of data set: Caspase 9 activity, Caspase-Glo 9 Assay. Conditions: 72 h. Type of data set: cell-based, human. How it is done:
Caspase 9 activity was evaluated using the Caspase-Glo® 9 Assay kit. The assay was performed according to the manufacturer's instructions. Luminescence was quantified with a Spark microplate reader.

Data set [5] concerns JEG-Tox cells. The data set can be described thus: Reactive Oxygen Species (ROS) production, H2DCF-DA assay. Conditions: 48 h. Format: cell-based, human. Here is the method:
Intracellular ROS were measured using 2′,7′-dichlorodihydro-fluorescein diacetate (H2DCF-DA, Life Technologies), which is hydrolyzed by cell esterases in 2′,7′-dichlorodihydrofluorescein and oxidized by ROS in highly fluorescent 2′,7′-dichlorofluorescein. A 10 μM solution of H2DCF-DA was distributed into wells. After a 20-min incubation period at 37° C., the fluorescence signal was read (λex=485 nm, λem=535 nm) using a Spark microplate reader.

Like-named read-outs stand apart in the source and are kept apart here.

`O=C(O)C(F)(F)C(F)(F)C(F)(F)C(F)(F)C(F)(F)C(F)(F)C(F)(F)F` [PFOA, perfluorooctanoic acid]: the viability – broadly, the share of living cells, or the viability signal relative to a control – at 24 h, 120 μg/mL in [1] was determined as 85%. The results for the living cells with JEG-3 cells (80 μg/mL) and in the data set on JEG-3 cells (120 μg/mL) were 68% and 27%, respectively. In the data set with JEG-3 cells (diluted in 2.5% FBS), the “concentration at which cytotoxicity was revealed” value came to 200 µM. For the same compound, in the data set with JEG-3 cells (diluted in 10% FBS), the “concentration at which only a slight loss of cell viability was observed” value is 300 µM. The “concentration at which chromatin condensation was initiated” value with JEG-Tox cells [2] was 20 µg/mL.
`CC(C)(c1ccc(O)cc1)c1ccc(O)cc1` [bisphenol A, Bisphenol A]: in [3] (JEG-Tox cells), the viability at 72 h, 100 µM came out at 18%. Also, the “concentration up to which no loss of cell viability was observed” value in the data set with JEG-Tox cells [4] is given as “up to 20 μM”. In addition, the “cytotoxicity (concentration)” value in the data set with JEG-Tox cells [4] (Table 4 summary, loss of viability >= 30% counted as cytotoxic) is “No”. Further, the “P2X7 receptor activation compared to control” value on P2X7 receptor (20 μM, 72 h) amounted to 1.21 fold change; at P2X7 receptor (25 μM, 72 h) it was 1.26 fold change; at P2X7 receptor (50 μM, 72 h), 1.34 fold change. Moreover, the “endocrine disruptor according to the definition of the European Union” value on P2X7 receptor is “is an endocrine disruptor”. The “P2X7 receptor activation (in words)” value on P2X7 receptor (JEG-Tox, 72 h) is “triggered P2X7 receptor activation”. The “P2X7 activation (concentration)” value at P2X7 receptor (Table 4 summary, 72 h) was in the range of 5 to 20 µM. Moreover, the “caspase-1 activity compared to control” value in the data set with caspase-1 (50 μM) is given as 1.57 fold change; in the data set on caspase-1 (highest concentration tested), 1.64 fold change. For the same compound, the “effect on caspase-1 activity” value in the data set on caspase-1 is “activated caspase-1”. The “Casp-1 activation (concentration)” value in the data set with caspase-1 (Table 4 summary) came to 20 µM. Moreover, the “caspase-9 activity compared to control” value in the data set on caspase-9 (50 μM (highest concentration)) came to 1.28 fold change. In addition, in the data set on JEG-Tox cells [5], the “effect on ROS production” value was “no effect”.
Regarding `Oc1ccc(Cc2ccc(O)cc2)cc1` [bisphenol F, Bisphenol F], the “concentration at which chromatin condensation was initiated” value with JEG-Tox cells [2] stood at 5 µg/mL. In [3], the viability at 72 h, 100 µM stood at 64%. For the same compound, the “P2X7 receptor activation compared to control” value is listed as 1.24 fold change at P2X7 receptor (25 μM, 72 h) and 1.46 fold change at P2X7 receptor (50 μM, 72 h). Moreover, on P2X7 receptor, the “endocrine disruptor according to the definition of the European Union” value is given as “corresponds also to an endocrine disruptor”. Moreover, the “caspase-1 activity compared to control” value in the data set with caspase-1 (25 μM) is 1.60 fold change; in the data set on caspase-1 (50 μM), 2.61 fold change. For the same compound, the results for the “caspase-9 activity compared to control” value with caspase-9 (25 μM) and in the data set with caspase-9 (50 μM (highest concentration)) were 1.47 fold change and 1.67 fold change, respectively. Besides, the “ROS production compared to control” value in the data set on JEG-Tox cells [5] (25 μM) and with JEG-Tox cells [5] (50 μM) was 2.5 fold change throughout.
